In US12077566B2, “Mutants of recombinant immunoregulatory protein of Ganoderma lucidum and applications thereof” (priority 2017, dated 2024):

Key:
[1] = tested on: rLZ-8 internalization in Hep G2 cells; experiment: Inhibitor screening of rLZ-8 endocytosis; format: cell-based
Method: The rLZ-8 is labeled by an Alexa Fluor 568 fluorescent probe; then 10 μg/mL fluorescent labeled rLZ-8 acts on Hep G2 cells for 3 hours; whether the rLZ-8 enters the cell is observed with the ultrahigh resolution imaging system; and obtained images are reconstructed, fitted and further analyzed through an image analysis software of Imaris.
Inhibitors of different internalization ways are selected, respectively EIPA (macropinocytosis inhibitor), Wortmannin/LY294002 (P13K inhibitor), Nystatin+Progesterone (caveolae inhibitor) and Chlorpromazine (clathrin inhibitor); the inhibitors respectively act on the Hep G2 cells, and inhibitory effects of the inhibitors on rLZ-8 endocytosis are observed.

[2] = tested on: human liver cancer Hep G2 cells; settings: for Mice weight after experiment: mouse, in vivo; for Mice tumor weight after experiment / Survival rate of mice after experiment: qd×28 i.v., rLZ-8 and mutants 0.5 mg/kg, sorafenib 50 mg/kg; for Survival rate of mice after experiment: 10 mice per group
From the text: Two weeks later, the model mice are divided into groups randomly, and each group has 10 mice. The administration method is caudal vein injection, once a day, for consecutive 28 days (qd×28, i.v.). […] During the experiment, if the mouse dies, the dead mouse is weighted on the same day, and the tumor tissue is taken out to be weighted. For the living mouse after administration for 28 days, the mouse is killed, and then the tumor tissue is taken out to be weighted. The death time and death number of the mice in each group are recorded in detail; the survival conditions of the mice of the experimental groups and the control groups are analyzed, and the survival rate is calculated, wherein the survival rate is obtained through subtracting the death number of the mice from the total number of the mice, and then dividing the difference by the total number of the mice.

[3] = tested on: human lung cancer A549 cells; experiment: Orthotopic transplantation tumor model of human lung cancer A549 cells; settings: after administration for 28 days;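 note: test animals were NOG mice aged 6-8 weeks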
Method: The human lung cancer A549 cell strain is selected. The NOG Mice of 6-8 weeks old are selected.
The DMEM containing 10% fetal bovine serum is selected for the human lung cancer A549 cells, and then is placed in the CO2 constant-temperature incubator at 37° C. for culturing. The A549 cells at the logarithmic phase are digested by pancreatin and thereafter washed with serum-free DMEM; the living cell concentration is adjusted to 1×10^8 cells per milliliter; 20 μL cell suspension is taken and inoculated at the lung of the NOG mice; two weeks later, the orthotopic transplantation tumor model of A549 lung cancer cells is constructed in the NOG mice.

[4] = tested on: human breast cancer MCF7 cells; experiment: Orthotopic transplantation tumor model of human breast cancer MCF7 cells; format: in vivo, BALB/c nude mice; settings: after administration for 28 days
Method: One day before the experiment, 0.5 mg of 17ß estradiol sustained release tablet is embedded below the neck skin of the BALB/c nude mice.

Hep G2 cells = experiment: Cell death after rLZ-8 internalization; format: cell-based; settings: 100 μg/mL, 5 hours
From the text: With the ultrahigh resolution imaging system, the whole change process of the cell after the internalization of the rLZ-8 is observed in real time; and, combined with the above researches, the reason why the rLZ-8 causes the tumor cell death is judged.

[5] = tested on: EGFR, c-Met, PDGFR, N-cadherin and LDLR; experiment: Immunofluorescence co-localization of rLZ-8 with membrane receptors; format: cell-based
Method: Considering that the high internalization degree of the rLZ-8 may be caused by the internalization after binding with a receptor on the cytomembrane, the rLZ-8 and the receptor on the cytomembrane are screened. Relationships between the different receptors on the cytomembrane and the tLZ-8 are measured through an immunofluorescence method. Fluorescent labels are made respectively on antibodies of EGFR, c-Met, PDGFR, N-cadherin and LDLR, and co-localization situations thereof with the rLZ-8 are respectively observed.

S180 = settings: mouse; cited from earlier work
[6] = biological target: EGFR extracellular domain (Homo sapiens, UniProt P00533); experiment: Affinity test by surface plasmon resonance (Biacore T200, CM5 chip); format: binding; settings: EGFR extracellular domain coupled on CM5 chip, analyte 4-256 nM
Method: The Biacore™ T200 equipment (a Surface Plasmon Resonance from GE Company) is selected. Through the surface plasma resonance technology, the affinity of the rLZ-8 and the mutants thereof to the EGFR extracellular domain is tested. The CM5 chip is adopted to serve as the affinity test chip.
The EGFR extracellular domain (with an amino acid sequence of 25-645) serves as the ligand for coupling; 1 mg EGFR freeze-dried powders are diluted with HEPES buffer solution to a concentration of 400 μg/mL and set aside. Three 1.5 mL EP tubes are prepared; 10 μL ligand are respectively added into the three tubes, then 90 μL 10 mM sodium acetate with different pH values of 4.5, 5.0 and 5.5 are respectively added into the tubes and are mixed completely and uniformly; and a final concentration of the ligand is 40 μg/mL. Moreover, 200 μL 50 mM sodium acetate is added into another 1.5 mL EP tube.
The ligand has a molecular weight of 70 kDa, the analyte (rLZ-8) has a molecular weight of 12.4 kDa. In theory, one rLZ-8 […] can bind with one EGFR, and thus the stoichiometric ratio Sm is equal to 1. Through the following equations, the coupling amount RL of the ligand is calculated.
Through the experimental experience, the optimal reagent coupling amount is set to be 3*RL, and the coupling amount is set to be 1700 RU. The EGFR extracellular domain is successively coupled on the CM5 chip. […]

[7] = tested on: human colon cancer SW480 cells; experiment: Transplantation tumor model of human colon cancer SW480 cells; format: in vivo, BALB/c nude mice; settings: after administration for 28 days
Method: The RPMI1640 medium containing 10% fetal bovine serum is selected for the human colon cancer SW480 cells, and then is placed in the CO2 constant-temperature incubator at 37° C. for culturing. The SW480 cells at the logarithmic phase are digested by pancreatin and thereafter washed with serum-free RPMI1640 medium; 2×10^6 cells are inoculated below the back skin of the BALB/c nude mice; after the tumor blocks for observation are formed and have the diameter larger than 0.5 cm, the mice are divided into groups randomly; and the transplantation tumor model of human colon cancer SW480 cells are constructed in the BALB/c nude mice.

[8] = tested on: transplanted liver cancer cells H22; settings: mouse; cited from earlier work

Which “Inhibitory effect on rLZ-8 internalization (in words)” value ([1]; Hep G2 cells) does the source give for CCN(c1nc(N)c(C(=O)NC(=N)N)nc1Cl)C(C)C [EIPA] here?
Its value is “effectively inhibits the internalization of the rLZ-8”.

With CNC(=O)c1cc(Oc2ccc(NC(=O)Nc3ccc(Cl)c(C(F)(F)F)c3)cc2)ccn1 [Sorafenib, sorafenib, reference compound] as the compound, how does the “Mice weight after experiment” value [2] read?
Its value is 19.6 ± 1.6 g.

What about the “Mice tumor weight after experiment” value [2] of the same compound?
Its value is 0.82 ± 0.37 g.

And the “Survival rate of mice after experiment” value [2]?
Its value is 50%.

Which “Inhibition of internalization efficiency of the rLZ-8” value [1] does the source give for mβCD here?
The value was 50%.

With “rLZ-8: recombinant immunoprotein of Ganoderma lucidum, sequence SEQ ID NO: 1, expressed in Pichia pastoris” as the compound, how does the “Mice survival rate after experiment” value [3] read?
The value was 50%.

And the “Mice tumor weight after experiment” value [3]?
Its value is 0.60 ± 0.45 g.

What about the “Mice weight after experiment” value [3] of the same compound?
Its value is 20.8 ± 1.5 g.

And the “Mice tumor weight after experiment” value [4]?
Its value is 0.74 ± 0.35 g.

What about the “Cell death (in words)” value (Hep G2 cells) of the same compound?
Its value is “shrinkage, burst and death of Hep G2 cells happen”.

What about the “Mice weight after experiment” value [2] of the same compound?
The value was 19.8 ± 1.4 g.

What about the “Mice tumor weight after experiment” value [2] of the same compound?
The value was 0.62 ± 0.53 g.

What about the “Survival rate of mice after experiment” value [2] of the same compound?
The value was 60%.

And the “Co-localization with other internalization-related membrane receptors (in words)” value [5]?
The value was “no co-localization phenomenon”.

And the “Co-localization with the EGFR (in words)” value [5]?
Its value is “high-degree co-localization phenomenon”.

What about the “In vivo tumor growth (in words)” value (S180) of the same compound?
Its value is “can inhibit the in vivo growth”.

And the “In vivo half-life period (in words)” value (In vivo half-life period)?
Its value is “relatively short in vivo half-life period”.

What about the “Dissociation rate constant (koff)” value [6] of the same compound?
Its value is 0.000583 s⁻¹.

And the Ka [6]?
The Ka was 63400 M⁻¹ s⁻¹.

What about the “Mice tumor weight after experiment” value [7] of the same compound?
The value was 1.94 ± 0.43 g.

What about the “In vivo tumor growth (in words)” value [8] of the same compound?
Its value is “can inhibit the in vivo growth”.
